Experimental data published in patent US11466044B2 (WAYNE STATE UNIVERSITY, priority 2017, dated 2022).
In brackets after ≈: the same amount, converted by molar mass. Structures can show the parent of a compound that is named as a salt. Where two headings read alike, the source gives them in different places.

Experiments:
[1] = test system: MRSA; experiment: MIC by broth microdilution, MRSA isolates; format: cell-based; settings: for MIC50: Staphylococcus aureus, MRSA
[2] = test system: E coli wild type; experiment: MIC by broth microdilution, wild type E coli; format: cell-based; settings: for MIC / MIC50: Escherichia coli
[3] = test system: P aeruginosa; experiment: MIC by broth microdilution, P aeruginosa isolates; format: cell-based, Pseudomonas aeruginosa; settings: for MIC50: Pseudomonas aeruginosa; for MIC: strain AG220 Pseudomonas aeruginosa ATCC27853, read-out: MIC AG220 P. aerugin
[4] = test system: E coli carrying specific resistance determinants; experiment: MIC by broth microdilution, E coli carrying specific resistance determinants; format: cell-based; settings: Escherichia coli
[5] = test system: wild type bacterial ribosomes; experiment: in-vitro translation assay, bacterial ribosomes; format: biochemical; settings: bacterial ribosome; Table 3 (Example 2); read-out: IC50 Bac
From the text: (§1) The antiribosomal activity of these compounds was investigated with cell-free translation assays using both wild type bacterial ribosomes and hybrid ribosomes carrying eukaryotic decoding A sites enabling the prediction of selectivity.

[6] = test system: cytosolic ribosome (human chimeric); format: biochemical; settings: cytosolic; Table 3 (Example 2); read-out: IC50 Cyt
From the text: as §1

[7] = test system: mitochondrial ribosome (human chimeric); format: biochemical; settings: mitochondrial; Table 3 (Example 2); read-out: IC50 Mit
From the text: as §1

[8] = test system: Klebsiella pneumonia AG215; experiment: MIC by broth microdilution, Klebsiella pneumonia; format: cell-based; settings: Klebsiella pneumoniae; strain AG215 Klebsiella pneumonia; read-out: MIC AG215 K. pneumon
[9] = test system: Acinetobacter baumannii pittii AG225; experiment: MIC by broth microdilution, Acinetobacter baumannii; format: cell-based; settings: strain AG225 Acinetobacter baumannii pittii
[10] = test system: Enterobacter cloacae AG290; experiment: MIC by broth microdilution, Enterobacter cloacae; format: cell-based; settings: strain AG290 Enterobacter cloacae; read-out: MIC AG290 E. cloacae
[11] = test system: M. smegmatis SZ380; experiment: MIC by broth microdilution, M. smegmatis; settings: for MIC: Mycolicibacterium smegmatis, SZ380, read-out: MIC SZ380 M. smegmatis, strain SZ380 Mycobacterium smegmatis
[12] = ATCC25922, strain AG212 E. coli (ATCC25922), read-out: MIC AG212 E. coli
[13] = strain AG33, Table 1 (Example 2), read-out: MIC50 P aeruginosa AG33
[14] = strain AG86, Table 1 (Example 2), read-out: MIC50 P aeruginosa AG86
[15] = read-out: MIC50 E coli AG036 ANT(4′,4″), AG036 ANT(4′,4″), Table 2B (Example 2)
[16] = read-out: MIC50 E coli AG037 APH(3′)-III, AG037 APH(3′)-III, Table 2B (Example 2)
[17] = read-out: MIC50 E coli AG103 armA, AG103 armA, Table 2B (Example 2)
[18] = read-out: MIC50 E coli pH421 APH(3′)-I, pH421 APH(3′)-I, Table 2B (Example 2)
[19] = read-out: MIC50 E coli pH422 APH(3′)-II, pH422 APH(3′)-II, Table 2B (Example 2)
[20] = read-out: MIC50 E coli pH423 APH(3)-VI, pH423 APH(3)-VI, Table 2B (Example 2)
[21] = read-out: MIC50 E coli pH432 ANT(4′), pH432 ANT(4′), Table 2B (Example 2)

CC1CC(N)C2O[C@H](O[C@@H]3C(N)C[C@@H](N)C(O)[C@H]3O[C@@H]3O[C@H](CO)[C@H](O[C@H]4O[C@@H](CN)[C@@H](O)C(O)C4N)C3O)C(N)[C@@H](O)[C@@H]2O1 (stereo partly drawn) [Compound 139, 4-O-(2′,6′-Diamino-4′,8′-anhydro-2′,6′,7′,9′-tetradeoxy-D-threo-α-D-gluco-nonapyranosyl)-5-O-(β-paramobiosyl)-2-deoxystreptamine.6AcOH]
MIC50 MRSA AG38 ([1]; strain AG38, Table 1 (Example 2)): 4 mg/L (≈ 6.11 µM)
MIC50 MRSA AG39 ([1]; strain AG39, Table 1 (Example 2)): 4 mg/L (≈ 6.11 µM)
MIC50 MRSA AG42 ([1]; strain AG42, Table 1 (Example 2)): 2 mg/L (≈ 3.05 µM)
MIC50 MRSA AG44 ([1]; strain AG44, Table 1 (Example 2)): 2 mg/L (≈ 3.05 µM)
MIC50 E coli BM13 (AG06) wt ([2]; BM13 (AG06) wt, Table 2A (Example 2)): 1 to 2 mg/L
MIC [2, 12]: 1 mg/L (≈ 1.53 µM)
MIC WT ([2]; WT, Table 3 (Example 2)): 0.5 to 1 mg/L
MIC50 E coli pH430 WT ([2]; pH430 WT, Table 2B (Example 2)): 0.5-1 μg/ml
MIC50 E coli AG01 ([2]; strain AG01, Table 1 (Example 2)): 2 mg/L (≈ 3.05 µM)
MIC50 E coli AG03 ([2]; strain AG03, Table 1 (Example 2)): 2 mg/L (≈ 3.05 µM)
MIC50 E coli AG55 ([2]; strain AG55, Table 1 (Example 2)): 2 mg/L (≈ 3.05 µM)
MIC50 [3, 13]: 128 mg/L (≈ 196 µM)
MIC50 [3, 14]: 128 mg/L (≈ 196 µM)
MIC50 P aeruginosa AG31 ([3]; strain AG31, Table 1 (Example 2)): 32 mg/L (≈ 48.9 µM)
MIC50 P aeruginosa AG32 ([3]; strain AG32, Table 1 (Example 2)): 32 mg/L (≈ 48.9 µM)
MIC [3]: 16 to 32 mg/L (≈ 24.4 to 48.9 µM)
MIC50 ([4]; read-out: MIC50 E coli AG07 AAC(3), AG07 AAC(3), Table 2A (Example 2)): 4 mg/L (≈ 6.11 µM)
MIC50 ([4]; read-out: MIC50 E coli AG09 AAC(6′), AG09 AAC(6′), Table 2A (Example 2)): 2 mg/L (≈ 3.05 µM)
MIC50 ([4]; read-out: MIC50 E coli AG036 ANT(4′,4″), AG036 ANT(4′,4″), Table 2A (Example 2)): 2 mg/L (≈ 3.05 µM)
MIC50 [4, 15]: 0.25 mg/L (≈ 0.382 µM)
MIC50 [4, 16]: 8 to 16 mg/L (≈ 12.2 to 24.4 µM)
MIC50 ([4]; read-out: MIC50 E coli AG037 APH(3′,5″), AG037 APH(3′,5″), Table 2A (Example 2)): 32 to 64 mg/L (≈ 48.9 to 97.8 µM)
MIC50 ([4]; read-out: MIC50 E coli AG103 ArmA, AG103 ArmA, Table 2A (Example 2)): 2 mg/L (≈ 3.05 µM)
MIC50 [4, 17]: 0.5 mg/L (≈ 0.764 µM)
MIC50 ([4]; read-out: MIC50 E coli AG105 AAC(2′), AG105 AAC(2′), Table 2A (Example 2)): 2 to 4 mg/L (≈ 3.05 to 6.11 µM)
MIC50 ([4]; read-out: MIC50 E coli pH414 AAC(6′)-I, pH414 AAC(6′)-I, Table 2B (Example 2)): 1 mg/L (≈ 1.53 µM)
MIC50 ([4]; read-out: MIC50 E coli pH415 AAC(6′)-II, pH415 AAC(6′)-II, Table 2B (Example 2)): 1 mg/L (≈ 1.53 µM)
MIC50 [4, 18]: > 32 mg/L
MIC50 [4, 19]: 8 mg/L (≈ 12.2 µM)
MIC50 [4, 20]: 1 to 2 mg/L (≈ 1.53 to 3.05 µM)
MIC50 [4, 21]: 1 mg/L (≈ 1.53 µM)
MIC ([4]; read-out: MIC AAC(6′)): 1 mg/L (≈ 1.53 µM)
MIC ([4]; read-out: MIC ANT(4′)): 0.25 mg/L (≈ 0.382 µM)
MIC ([4]; read-out: MIC APH(3′)-II): 8 mg/L (≈ 12.2 µM)
MIC ([4]; read-out: MIC APH(3′)-VI): 1 to 2 mg/L (≈ 1.53 to 3.05 µM)
IC50 [5]: 0.12 µM
IC50 [6]: 19 µM
IC50 [7]: 2.3 µM
MIC [8]: 0.5 to 1 mg/L (≈ 0.764 to 1.53 µM)
MIC [9]: 4 mg/L (≈ 6.11 µM)
MIC [10]: 1 mg/L (≈ 1.53 µM)
MIC SZ380 M. smegmatis ([11]; strain SZ380 Mycobacterium smegmatis): 1 to 2 mg/L

CC(C)(O)C1O[C@H](O[C@@H]2C(N)C[C@@H](N)C(O)[C@H]2O[C@@H]2O[C@H](CO)[C@H](O[C@H]3O[C@@H](CN)[C@@H](O)C(O)C3N)C2O)C(N)[C@@H](O)[C@@H]1O (some centres unmarked) [Compound 159]
MIC50 ([1]; strain AG38, Table 1 (Example 2), read-out: MIC50 MRSA AG38): 8 to 16 mg/L (≈ 12.4 to 24.9 µM)
MIC50 ([1]; strain AG39, Table 1 (Example 2), read-out: MIC50 MRSA AG39): > 128 mg/L
MIC50 ([1]; strain AG42, Table 1 (Example 2), read-out: MIC50 MRSA AG42): > 128 mg/L
MIC50 ([1]; strain AG44, Table 1 (Example 2), read-out: MIC50 MRSA AG44): 4 to 8 mg/L (≈ 6.21 to 12.4 µM)
MIC [2, 12]: 4 mg/L (≈ 6.21 µM)
MIC50 ([2]; BM13 (AG06) wt, Table 2A (Example 2), read-out: MIC50 E coli BM13 (AG06) wt): 4 mg/L (≈ 6.21 µM)
MIC50 ([2]; pH430 WT, Table 2B (Example 2), read-out: MIC50 E coli pH430 WT): 1 to 2 mg/L (≈ 1.55 to 3.11 µM)
MIC50 ([2]; strain AG01, Table 1 (Example 2), read-out: MIC50 E coli AG01): 8 mg/L (≈ 12.4 µM)
MIC50 ([2]; strain AG03, Table 1 (Example 2), read-out: MIC50 E coli AG03): 8 mg/L (≈ 12.4 µM)
MIC50 ([2]; strain AG55, Table 1 (Example 2), read-out: MIC50 E coli AG55): 8 mg/L (≈ 12.4 µM)
MIC50 ([3]; strain AG31, Table 1 (Example 2), read-out: MIC50 P aeruginosa AG31): > 128 mg/L
MIC50 ([3]; strain AG32, Table 1 (Example 2), read-out: MIC50 P aeruginosa AG32): > 128 mg/L
MIC50 [3, 13]: > 128 mg/L
MIC50 [3, 14]: > 128 mg/L
MIC [3]: > 64 mg/L
MIC50 [4, 15]: 16 to 32 mg/L (≈ 24.9 to 49.7 µM)
MIC50 [4, 16]: > 64 mg/L
MIC50 [4, 17]: 4 to 8 mg/L (≈ 6.21 to 12.4 µM)
MIC50 [4, 18]: > 64 mg/L
MIC50 [4, 19]: > 64 mg/L
MIC50 [4, 20]: 8 mg/L (≈ 12.4 µM)
MIC50 [4, 21]: 2 mg/L (≈ 3.11 µM)
MIC [8]: 1 to 2 mg/L (≈ 1.55 to 3.11 µM)
MIC [9]: 4 mg/L (≈ 6.21 µM)
MIC [10]: 2 mg/L (≈ 3.11 µM)
MIC [11]: 2 mg/L (≈ 3.11 µM)

CC(=O)NC[C@H]1O[C@@H](O[C@@H]2C(O)[C@H](N)CC(N)[C@H]2O[C@H]2OC(CO)[C@@H](O)[C@H](O)C2N)C(O)[C@H]1O[C@H]1O[C@@H](CN)[C@@H](O)C(O)C1N (some centres unmarked) [Compound 165, 5″-Acetamido-5″-deoxy-paromomycin-acetate salt]
MIC50 ([1]; strain AG38, Table 1 (Example 1), read-out: MIC50 MRSA AG38): 16 to 32 mg/L
MIC50 ([1]; strain AG39, Table 1 (Example 1), read-out: MIC50 MRSA AG39): > 128 mg/L
MIC50 ([1]; strain AG42, Table 1 (Example 1), read-out: MIC50 MRSA AG42): > 128 mg/L
MIC50 ([1]; strain AG44, Table 1 (Example 1), read-out: MIC50 MRSA AG44): 16 mg/L
MIC ([2]; AG006 wt, Table 2 (Example 1), read-out: MIC E coli AG006 wt): 4 to 8 mg/L
MIC [2, 12]: 16 mg/L
MIC ([2]; clinical isolate AG160 WT, Table 2 (Example 4), read-out: MIC AG160 E. coli WT): 8 mg/L
MIC ([2]; engineered strain pH430 WT, Table 2 (Example 4), read-out: MIC pH430 E. coli WT): 8 to 16 mg/L
MIC50 ([2]; strain AG01, Table 1 (Example 1), read-out: MIC50 E coli AG01): 64 mg/L
MIC50 ([2]; strain AG03, Table 1 (Example 1), read-out: MIC50 E coli AG03): 32 to 64 mg/L
MIC50 ([2]; strain AG55, Table 1 (Example 1), read-out: MIC50 E coli AG55): 32 mg/L
MIC50 ([3]; strain AG31, Table 1 (Example 1), read-out: MIC50 P aeruginosa AG31): > 128 mg/L
MIC50 ([3]; strain AG32, Table 1 (Example 1), read-out: MIC50 P aeruginosa AG32): > 128 mg/L
MIC50 ([3]; strain AG33, Table 1 (Example 1), read-out: MIC50 P aeruginosa AG33): > 128 mg/L
MIC50 ([3]; strain AG86, Table 1 (Example 1), read-out: MIC50 P aeruginosa AG86): > 128 mg/L
MIC [3]: > 64 mg/L
MIC ([4]; read-out: MIC AG037 E. coli APH(3′)-III): > 64 mg/L
MIC ([4]; read-out: MIC pH421 E. coli APH(3′)-I): > 64 mg/L
MIC ([4]; read-out: MIC pH422 E. coli APH(3′)-II): > 64 mg/L
MIC ([4]; read-out: MIC pH423 E. coli APH(3′)-VI): > 64 mg/L
MIC [8]: 8 mg/L
MIC [9]: 8 to 16 mg/L
MIC [10]: 8 mg/L
MIC [11]: 32 mg/L
